What was measured:
[1] = target: recombinant BACE1 protein (Homo sapiens, UniProt P56817); test: Biochemical FRET based assay; conditions: recombinant BACE1 1 μg/ml, 120 minutes at room temperature, pH 5.0; for IC50: read-out: Biochemical FRET based assay pIC50 (converted)
In short: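 Recombinant BACE1 (1 μg/ml final) was incubated 120 minutes at room temperature with […] Mca/Dnp-labelled 13-mer APP Swedish-mutant peptide in 40 mM citrate pH 5.0, 0.04% PEG, 4% DMSO, with or without compound. Cleavage was measured as fluorescence (ex 320/em 405 nm), given as RFU difference between T120 and T0.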

Abeta total = test: Cellular αLisa assay in SKNBE2 cells, Abeta total; format: cell-based, human; conditions: incubated for 18 hours; for IC50: Homo sapiens, SKNBE2, 18 h, read-out: Cellular αLisa assay in SKNBE2 cells Abetatotal pIC50 (converted)
In short: (§1)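 Human neuroblastoma SKNBE2 cells expressing wild-type hAPP695 were incubated with compound for 18 hours. Secreted Abeta total and Abeta 1-42 in medium were quantified by sandwich αLisa: biotinylated AbN/25 on streptavidin donor beads with Ab4G8 (total) or cAb42/26 (1-42) acceptor beads. Light emission read after 1 hour (ex 650 nm, em 615 nm).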

Abeta 1-42 = test: Cellular αLisa assay in SKNBE2 cells, Abeta 1-42; format: cell-based, human; conditions: incubated for 18 hours; for IC50: Homo sapiens, SKNBE2, 18 h, read-out: Cellular αLisa assay in SKNBE2 cells Abeta 42 pIC50 (converted)
In short: as §1

recombinant BACE1 protein, sequence (P56817 46-501): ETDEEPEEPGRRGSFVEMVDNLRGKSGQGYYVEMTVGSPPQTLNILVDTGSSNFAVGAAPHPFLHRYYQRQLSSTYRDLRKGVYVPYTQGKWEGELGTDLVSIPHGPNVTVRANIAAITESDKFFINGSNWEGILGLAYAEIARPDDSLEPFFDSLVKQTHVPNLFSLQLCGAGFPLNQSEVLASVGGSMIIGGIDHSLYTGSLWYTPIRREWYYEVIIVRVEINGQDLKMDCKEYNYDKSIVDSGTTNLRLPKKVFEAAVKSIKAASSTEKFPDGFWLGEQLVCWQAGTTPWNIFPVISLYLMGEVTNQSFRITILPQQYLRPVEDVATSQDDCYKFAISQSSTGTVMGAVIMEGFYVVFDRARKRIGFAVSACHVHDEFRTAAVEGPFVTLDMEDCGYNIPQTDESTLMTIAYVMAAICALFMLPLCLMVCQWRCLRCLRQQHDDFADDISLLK

Row | SMILES | Biochemical FRET based assay pIC50 [1] | Cellular αLisa assay in SKNBE2 cells Abetatotal pIC50 (Abeta total) | Cellular αLisa assay in SKNBE2 cells Abeta 42 pIC50 (Abeta 1-42) | IC50 [1] [µM] | IC50 (Abeta total) [µM] | IC50 (Abeta 1-42) [µM]
1 | C[C@@]1(c2cc(NC(=O)c3ccc(C(F)(F)F)cn3)ccc2F)COCC(N)=N1 [Compound 38] | 6.91 | 8.35 | 8.39 |  |  | 
2 | Cc1cnc(C(=O)Nc2ccc(F)c([C@]3(C)COCC(N)=N3)c2)cn1 [Compound 40] | 6.04 | 7.32 | 7.31 |  |  | 
3 | C[C@@]1(c2cc(NC(=O)c3ccc(Cl)cc3)ccc2F)COCC(N)=N1 [Compound 41] | 6.33 | 7.33 | 7.31 |  |  | 
4 | COc1cc(Cl)ccc1C(=O)Nc1ccc(F)c([C@]2(C)COCC(N)=N2)c1 [Compound 45] | 5.53 | 6.92 | 6.85 |  |  | 
5 | COc1cccc(-c2cc([C@]3(C)COCC(N)=N3)c(F)cc2F)c1 [Compound 47] | 5.95 | 6.83 | 6.79 |  |  | 
6 | C[C@@]1(c2cc(-c3cc(Cl)cc(Cl)c3)c(F)cc2F)COCC(N)=N1 [Compound 48] | 5.73 | 6.22 | 6.19 |  |  | 
7 | C[C@@]1(c2cccc(-c3cccc(C#N)c3)c2)COCC(N)=N1 [Compound 51] | 5.41 | 6.59 | 6.61 |  |  | 
8 | C[C@@]1(c2cc(NC(=O)c3ccc(Cl)cc3F)ccc2F)COCC(N)=N1.Cl [Compound 68] | 6.35 | 7.04 | 7.06 |  |  | 
9 | C[C@@]1(c2cccc(NC(=O)c3ccc(Cl)cn3)c2)COC2(CC2)C(N)=N1 [Compound 73] |  |  |  | 0.102 | 0.00427 | 0.0049
10 | C[C@@]1(c2cccc(-c3cncnc3)c2)COC2(CC2)C(N)=N1 [Compound 74] |  |  |  | 4.17 | 0.204 | 0.195
11 | CC1(c2cc(NC(=O)c3ncc(Cl)cc3F)ccc2F)N=C(N)COC1F (stereo not drawn) [Compound 77] |  |  |  | 0.0525 | 0.0117 | 0.012
12 | CC1(c2cc(NC(=O)c3ncc(Cl)cc3Cl)ccc2F)N=C(N)COC1F (stereo not drawn) [Compound 78] |  |  |  | 0.055 | 0.00851 | 0.0117
13 | COc1cnc(C(=O)Nc2cccc(C3(C)N=C(N)COC3F)c2)cn1 (stereo not drawn) [Compound 80] |  |  |  | 0.0977 | 0.0537 | 0.0603
14 | COc1cncc(-c2cccc(C3(C)N=C(N)COC3C(F)(F)F)c2)c1 (stereo not drawn) [Compound 108] |  |  |  | 1.29 | 0.12 | 0.12
15 | Cc1cc(Cl)cnc1C(=O)Nc1ccc(F)c([C@]2(C)COCC(N)=N2)c1 [Compound 143] | 7.48 | 8.36 | 8.35 |  |  | 
16 | CC1(c2cc(NC(=O)c3ncc(Cl)cn3)ccc2F)COCC(N)=N1 (stereo not drawn) [Compound 144] | 7.11 | 7.38 | 7.27 |  |  | 
17 | COc1cccc(-c2cc([C@]3(C)COCC(N)=N3)c(F)cc2F)n1.Cl [Compound 145] | 4.67 | 5.55 | 5.45 |  |  | 
18 | CC1(c2cccc(NC(=O)c3cnc(C(F)(F)F)cn3)c2)COCC(N)=N1 (stereo not drawn) [Compound 146] | 6.26 | 7.03 | 7.07 |  |  | 

Row | SMILES | Biochemical FRET based assay pIC50 [1] | Cellular αLisa assay in SKNBE2 cells Abetatotal pIC50 (Abeta total) | Cellular αLisa assay in SKNBE2 cells Abeta 42 pIC50 (Abeta 1-42) | IC50 [1] [µM] | IC50 (Abeta total) [µM] | IC50 (Abeta 1-42) [µM]
19 | CC1(c2cc(NC(=O)c3cnc(C(F)(F)F)cn3)ccc2F)COCC(N)=N1 (stereo not drawn) [Compound 147] | 6.7 | 7.6 | 7.59 |  |  | 
20 | C[C@@]1(c2cc(-c3cncnc3)c(F)cc2F)COC2(CC2)C(N)=N1 [Compound 150] |  |  |  | 1.1 | 0.2 | 0.2
21 | C[C@]1(c2cc(-c3cncnc3)c(F)cc2F)COCC(N)=N1 [Compound 155] | <4.52 | <5 | <5 |  |  | 
22 | C[C@]1(c2cc(NC(=O)c3ccncn3)ccc2F)N=C(N)CO[C@H]1C(F)(F)F [Compound 168] |  |  |  | 0.832 | 0.0741 | 0.0794
23 | CC1(c2cccc(-c3cncc(C#N)c3)c2)N=C(N)COC1C(F)(F)F (stereo not drawn) [Compound 171] |  |  |  | 1.12 | 0.129 | 0.135
24 | COc1cnc(C(=O)Nc2ccc(F)c([C@@]3(C)N=C(N)CO[C@@]3(F)C(F)(F)F)c2)cn1 [Compound 180] |  |  |  | 0.0447 | 0.0282 | 0.0339
25 | C[C@]1(c2cc(NC(=O)c3ccncn3)ccc2F)N=C(N)CO[C@@]1(F)C(F)(F)F [Compound 182] |  |  |  | 0.55 | 0.204 | 0.209
26 | N#Cc1ccc(C(=O)Nc2cccc(C3(C4CC4)N=C(N)COC3(F)C(F)(F)F)c2)nc1 (stereo not drawn) [Compound 198] | 6.52 | 6.69 | 6.7 |  |  | 
27 | COc1cnc(C(=O)Nc2cccc([C@@]3(C4CC4)N=C(N)CO[C@]3(F)C(F)(F)F)c2)cn1 [Compound 202] |  |  |  | 0.479 | 0.537 | 0.537
28 | COc1cnc(C(=O)Nc2cccc([C@@]3(C4CC4)N=C(N)CO[C@@]3(F)C(F)(F)F)c2)cn1 [Compound 203] |  |  |  | 0.0204 | 0.0372 | 0.0372
29 | N#Cc1ccc(C(=O)Nc2ccc(F)c([C@@]3(C4CC4)N=C(N)CO[C@@H]3F)c2)nc1 [Compound 214, (2R,3R)—N-[3-(5-amino-3-cyclopropyl-2-fluoro-3,6-dihydro-2H-1,4-oxazin-3-yl)-4-fluorophenyl]-5-cyanopyridine-2-carboxamide] |  |  |  | 0.11 | 0.708 | 0.794
30 | N#Cc1ccc(C(=O)Nc2ccc(F)c(C3(C4CC4)N=C(N)COC3F)c2)nc1 (stereo not drawn) [Compound 215] | 6.3 | 6.52 | 6.51 |  |  | 
31 | NC1=N[C@@](c2cc(NC(=O)c3ncc(Cl)cc3F)ccc2F)(C2CC2)[C@H](F)OC1 [Compound 220] |  |  |  | 0.468 | 0.347 | 0.355
32 | N#Cc1cncc(-c2ccc(F)c([C@@]3(C4CC4)N=C(N)CO[C@H]3F)c2)c1 [Compound 223] |  |  |  | 24.5 | > 10 | > 10
33 | NC1=N[C@@](c2cc(-c3cncnc3)ccc2F)(C2CC2)[C@H](F)OC1 [Compound 224, (5R,6S)-5-cyclopropyl-6-fluoro-5-(2-fluoro-5-pyrimidin-5-ylphenyl)-5,6-dihydro-2H-1,4-oxazin-3-amine] |  |  |  | 14.8 | > 10 | > 10
34 | N#Cc1ccc(C(=O)Nc2cccc([C@@]3(C4CC4)N=C(N)CO[C@H]3C(F)(F)F)c2)nc1 [Compound 225, (2R,3R)—N-{3-[5-amino-3-cyclopropyl-2-(trifluoromethyl)-3,6-dihydro-2H-1,4-oxazin-3-yl]phenyl}-5-cyanopyridine-2-carboxamide] |  |  |  | 0.0355 | 0.00661 | 0.00631
35 | N#Cc1ccc(C(=O)Nc2cccc(C3(C4CC4)N=C(N)COC3C(F)(F)F)c2)nc1 (stereo not drawn) [Compound 226] | 6.86 | 7.47 | 7.41 |  |  | 
36 | COc1cnc(C(=O)Nc2ccc(F)c([C@@]3(C4CC4)N=C(N)CO[C@H]3C(F)(F)F)c2)cn1 [Compound 230] |  |  |  | 0.0457 | 0.0135 | 0.0138

— patent US9828350B2, “5,6-dihydro-2H-[1,4]oxazin-3-yl-amine derivatives useful as inhibitors of beta-secretase (BACE)” (Janssen Pharmaceutica NV, priority 2010, dated 2017)
